# “And” between values parts separate entries of the source, which are not always exact repeats. Identical values can stand only once. The source made the active and inactive calls. The rule behind the calls is not given here.
# Biological target: Mu-type opioid receptor (Homo sapiens) + Delta-type opioid receptor (Homo sapiens) (UniProt P35372+P41143)
# Test: agonists of MOR-DOR heterodimerization, dose response, cell-based, luminescence (AID 588407);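 note: potency of agonists raising the heterodimer signal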
# Settings: cells
# Sequence of Mu-type opioid receptor (Homo sapiens) + Delta-type opioid receptor (Homo sapiens) (P35372 whole entry, looked up): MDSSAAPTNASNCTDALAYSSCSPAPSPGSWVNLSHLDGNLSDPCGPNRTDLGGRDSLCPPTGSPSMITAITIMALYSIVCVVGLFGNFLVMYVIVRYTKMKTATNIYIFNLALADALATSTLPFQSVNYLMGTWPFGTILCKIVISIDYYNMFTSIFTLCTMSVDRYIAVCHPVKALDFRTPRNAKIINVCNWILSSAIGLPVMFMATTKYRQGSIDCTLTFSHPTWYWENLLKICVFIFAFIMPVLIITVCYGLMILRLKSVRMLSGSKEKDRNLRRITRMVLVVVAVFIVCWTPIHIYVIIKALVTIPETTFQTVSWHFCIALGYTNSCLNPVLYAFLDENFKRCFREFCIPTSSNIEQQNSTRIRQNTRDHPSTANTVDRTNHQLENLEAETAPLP
# Sequence of Mu-type opioid receptor (Homo sapiens) + Delta-type opioid receptor (Homo sapiens) (P41143 whole entry, looked up): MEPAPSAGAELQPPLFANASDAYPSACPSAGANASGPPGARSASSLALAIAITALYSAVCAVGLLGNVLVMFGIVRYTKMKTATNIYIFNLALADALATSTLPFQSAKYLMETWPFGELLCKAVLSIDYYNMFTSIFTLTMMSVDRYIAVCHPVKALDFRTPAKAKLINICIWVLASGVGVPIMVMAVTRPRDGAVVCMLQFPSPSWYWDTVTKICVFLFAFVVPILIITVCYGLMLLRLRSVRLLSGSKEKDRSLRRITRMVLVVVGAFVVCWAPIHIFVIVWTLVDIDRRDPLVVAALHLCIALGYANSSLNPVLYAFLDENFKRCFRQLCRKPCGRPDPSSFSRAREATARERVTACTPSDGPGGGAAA
row,Structure (SMILES),EC50
1,CCOC(=O)C1(CCOc2ccccc2)CCN(Cc2ccc3c(c2)OCCO3)CC1,inactive
2,COc1ccc(C(CNC(=O)CSc2ccccc2C)N(C)C)cc1 (stereo unspecified),4.56 µM
3,COc1ccc(C(CNC(=O)C(C)c2ccc3cc(OC)ccc3c2)N(C)C)cc1 (stereo unspecified),inactive
4,CCOc1ccc(Nc2c3ccccc3nc3ccccc23)cc1,inactive
5,Cc1ccc(C)c(-n2cc(CNCCc3cnccn3)c(-c3ccccc3)n2)c1,10 µM
6,Cc1cccc(NC(=S)NC(=O)CCc2ccccc2)c1,> 92.5 µM (inactive)
7,COc1ccc(CNCCc2c[nH]c3ccccc23)c(OC)c1C,inactive
8,CCn1cc(CNCc2cn(-c3ccccc3C)nc2-c2ccc(OC)c(F)c2)cn1,1.75 µM
9,O=C(OC1C2CCC1C1CN(CCc3ccccc3)CC12)c1ccccc1 (stereo unspecified),inactive
10,Cc1cccc(NC(=S)NCC(c2cccnc2)N(C)C)c1 (stereo unspecified),1.02 µM
11,CN(C)C(CNC(=O)Cc1ccc(Br)cc1)c1ccccc1 (stereo unspecified),0.915 µM
12,COc1cc(NC(=O)c2cccc(C)c2)ccc1NC(=O)c1cc2ccccc2o1,inactive
13,COCC1CCN(Cc2cn(-c3ccccc3F)nc2-c2cc(C)sc2C)CC1,inactive
14,COc1ccc2c(c1)C=C(CN1CCC(CO)(CCc3ccccc3)CC1)CO2,inactive
15,O=C(COc1ccc(/C=N/NC(=O)c2cc3ccccc3o2)cc1Br)Nc1ccccc1,9.7 µM
16,OC(CNCCC(c1ccccc1)c1ccccc1)COc1ccccc1 (stereo unspecified),inactive
17,Cc1ccc(C2(O)CN(c3ccccc3)C3=[N+]2CCS3)cc1 (stereo unspecified),2.93 µM
18,CCCCCCCCCCOC(=O)Cn1c(COc2ccccc2C)[n+](C)c2ccccc21,inactive
19,COc1cc(C2C(C#N)=C(N)N(c3sc4c(c3C#N)CCCC4)C3=C2C(=O)CC(C)(C)C3)cc(OC)c1OC (stereo unspecified),inactive
20,Cc1ccc(C2(O)CN(c3ccccc3C)C3=[N+]2CCS3)cc1 (stereo unspecified),0.381 µM
21,COC(=O)NCC(c1ccc2c(c1)OCO2)N1CCN(c2ccccc2)CC1 (stereo unspecified),1.25 µM
22,CCC1(C)CC(CCNCc2ccc(N(C)C)cc2)(c2ccc(F)cc2)CCO1 (stereo unspecified),2.9 µM
23,COC(=O)C1=C(C)N(CCCC(=O)O)C(=O)NC1c1ccccc1OS(=O)(=O)c1ccccc1[N+](=O)[O-] (stereo unspecified),8.75 µM
24,COc1ccc(C2CC(c3ccc(OC)cc3)n3nc(NC(=O)c4cccs4)nc3N2)cc1 (stereo unspecified),inactive
25,COc1ccc(C(CNC(=O)c2ccc(S(=O)(=O)N(C)C)cc2)N(C)C)cc1 (stereo unspecified),4.57 µM
26,COCCN(C(=O)C1CC(=O)N(Cc2ccccc2)C1)c1nc(-c2ccc([N+](=O)[O-])cc2)cs1 (stereo unspecified),5.6 µM

row,Structure (SMILES),EC50
1,Cc1ccc2nc(SC(C(=O)Nc3ccc(F)cc3)c3ccccc3)[nH]c2c1 (stereo unspecified),> 92.5 µM (inactive)
2,CN(C)C(CNC(C(=O)Nc1ccc([N+](=O)[O-])cc1Br)c1ccccc1)c1ccccc1 (stereo unspecified),9.79 µM
3,COc1ccc(-n2cc(CNCc3cccnc3)c(-c3cccc(F)c3)n2)cc1,inactive
4,COc1ccc(C(CNC(=O)CCc2ccsc2)N(C)C)cc1 (stereo unspecified),0.2 µM
5,Cc1ccccc1N1CC(O)(c2ccccc2)[N+]2=C1SCC2 (stereo unspecified),2.12 µM
6,CCc1ccc2nc(N(CCCN(C)C)C(=O)c3ccc(S(=O)(=O)N(C)C4CCCCC4)cc3)sc2c1,inactive
7,CC(CC(=O)N(CCC1=CCCCC1)c1c(N)n(Cc2ccccc2)c(=O)[nH]c1=O)c1ccccc1 (stereo unspecified),> 92.5 µM (inactive)
8,Cc1cccc2cc(C(c3nnnn3Cc3ccccc3)N3CCN(C)CC3)c(=O)[nH]c12 (stereo unspecified),inactive
9,CN1CCN(c2ccc(NC(=O)c3ccc(-c4ccccc4F)o3)cc2)CC1,3.26 µM
10,COc1cc2c3cc1Oc1cc(ccc1O)C[C@@H]1c4c(cc(OC)c(O)c4Oc4ccc(cc4)C[C@H]3N(C)CC2)CCN1C,inactive
11,CC(=O)C1CCC2C3CC=C4CC(SC(=N)N)CCC4(C)C3CCC12C (stereo unspecified),9.58 µM
12,CCc1ccc(NC(=O)N(CCCN2CCOCC2)Cc2cccs2)cc1,inactive
13,Cc1ccc(Cl)cc1NC(=O)CNCC(c1ccccc1)N(C)C (stereo unspecified),9.86 µM
14,O=S(=O)(c1c(Cl)cc(Br)cc1Cl)N1CCN(C(=S)NC2CC2)CC1,5.98 µM
15,COc1cccc(C(=O)Nc2ccc3c(c2)C(=O)c2ccccc2C3=O)c1,6.74 µM
16,O=C(Nc1ccccc1)c1ccc(NC2CCCCC2)c(S(=O)(=O)N2CCOCC2)c1,inactive
17,CCCC(=O)NC(C)C(c1cccs1)N1CCN(c2ccccc2)CC1 (stereo unspecified),inactive
18,Cc1ccc(C)c(-n2cc(CNC(C)Cn3cncn3)c(-c3ccccc3)n2)c1 (stereo unspecified),inactive
19,COc1ccc(C(C(=O)NC2CCCCC2)N(C(=O)Cc2c[nH]c3ccccc23)c2ccc(NC(C)=O)cc2)cc1OC (stereo unspecified),> 92.5 µM (inactive)
20,COc1ccc(C(CNC(=O)/C=C/c2c(Cl)nc3ccccn23)N(C)C)cc1 (stereo unspecified),7.62 µM
21,CCC(=O)OC1(c2cccc(C)c2)CC(C)N(C)CC1C (stereo unspecified),inactive
22,CC1=C/C(=N\OS(=O)(=O)c2ccccc2)C(C)=CC1=O,inactive
23,CSCCC(/C(O)=C(\C#N)c1nc2ccccc2[nH]1)N1C(=O)c2ccccc2C1=O (stereo unspecified),9.92 µM
24,Clc1ccc2c(N/N=C/c3ccccc3Br)ccnc2c1,9.73 µM
25,COc1ccc(C(CNC(=O)c2ccc3c(c2)CCC3)N(C)C)cc1 (stereo unspecified),0.0459 µM
26,Cc1ccc(NC(=O)c2ncn(CCCN[C@H](C)c3cccc4ccccc34)n2)cc1C,9.88 µM

row,Structure (SMILES),EC50
1,CN(C)C(CNC(=S)Nc1ccccc1)c1cccnc1 (stereo unspecified),3.47 µM
2,O=S(=O)(NC1CC1)c1ccc(S(=O)(=O)N2CCCC3(CCCCC3)C2)cc1,inactive
3,CCOC(=O)C1(c2ccccc2)CCN(CCC(=O)Nc2ccc(F)cc2)CC1,2.36 µM
4,Cc1ccc2c(C)c(C(=O)N(Cc3cccs3)C3CCS(=O)(=O)C3)oc2c1 (stereo unspecified),7.04 µM
5,COc1ccc(NS(=O)(=O)c2ccc(O)c(NC(=O)c3cc4c(C)nn(-c5ccc(F)cc5)c4s3)c2)cc1,> 92.5 µM (inactive)
6,CN(C)CCCN(C(=O)c1ccc(S(=O)(=O)N2CCCCCC2)cc1)c1nc2c(F)cc(F)cc2s1,5.86 µM
7,COc1ccc(C(C)NCCC(c2ccc(OC(C)C)cc2)c2ccccc2OC)cc1 (stereo unspecified),inactive
8,CC(C)n1ncc2c(C(=O)Nc3cccc(C#N)c3)cc(C3CC3)nc21,3.59 µM
9,Cc1cc(/C=C2\SC(=S)N(C)C2=O)c(C)n1-c1ccc(O)cc1,inactive
10,Cc1cc(N2CCN(c3ccc([N+](=O)[O-])c4cccnc34)CC2)c2ccccc2n1,> 92.5 µM (inactive)
11,COc1cccc(CC2(CO)CCCN(Cc3ccccc3-c3ccco3)C2)c1 (stereo unspecified),8.88 µM
12,CCc1ccc2nc(N(CCCN(C)C)C(=O)c3ccc(S(=O)(=O)N4CCc5ccccc5C4)cc3)sc2c1,inactive
13,COc1ccc(-c2nn(-c3ccccc3C)cc2CNCc2cccnc2)cc1F,7.79 µM
14,CCOC(=O)C1(Cc2ccccc2)CCN(Cc2cccn2-c2cccnc2)CC1,inactive
15,c1ccc(C2(N3CCCCC3)CCCCC2)cc1,0.961 µM
16,CN(C)C(CNC(=S)Nc1cccc(Cl)c1)c1cccnc1 (stereo unspecified),0.408 µM
17,CN(C)C(CNC(=O)c1cccc(C(F)(F)F)c1)c1ccco1 (stereo unspecified),> 92.4 µM (inactive)
18,COCCCn1c(N)c(-c2nc3ccccc3n2C)c2nc3ccccc3nc21,4.2 µM
19,CN(C)S(=O)(=O)c1ccc(-c2csc(N/N=C/c3ccc(O)cc3)n2)cc1,9.95 µM
20,CCN1CCN(c2ccc([N+](=O)[O-])c(Sc3nc4ccccc4[nH]3)c2)CC1,4.66 µM
21,Cc1ccc(-n2cc(CNC(C)c3cnn(C)c3)c(-c3ccc(F)cc3)n2)cc1 (stereo unspecified),0.151 µM
22,CN(C)C(CNC(=O)c1ccc(Br)cc1)c1ccco1 (stereo unspecified),inactive
23,CC(=O)Nc1ccc(S(=O)(=O)NC2=C(N3CCN(Cc4ccccc4)CC3)C(=O)c3ccccc3C2=O)cc1,1.38 µM and 1.63 µM
24,COc1ccc(C2C(C#N)=C(N)N(c3sc4c(c3C#N)CCCC4)C3=C2C(=O)CC(C)(C)C3)cc1 (stereo unspecified),4.6 µM
25,Cc1cc(/C=C2\SC(=Nc3ccccc3)NC2=O)c(C)n1-c1ccc(S(N)(=O)=O)cc1,1.53 µM
26,O=C(c1sc2ccccc2c1Cl)N(Cc1ccco1)C1CCS(=O)(=O)C1 (stereo unspecified),inactive

row,Structure (SMILES),EC50
1,CN1C2C=C(N(CCc3c[nH]c4ccccc34)C(=O)c3ccc(Cl)cc3)CC1CC2 (stereo unspecified),4.76 µM
2,COC(=O)C1=CO[C@@H](C)[C@@H]2CN(CCc3c[nH]c4ccccc34)CC[C@H]12,4.05 µM
3,CCOC(=O)C1(Cc2ccccc2)CCN(Cc2cccn2-c2nccs2)CC1,inactive
4,Cc1occc1C(=O)N/N=C/c1ccc(-c2ccccc2)cc1,> 92.4 µM (inactive)
5,CC(C)c1ccc(NC(=O)N(CCc2nc3ccccc3[nH]2)C2CCCC2)cc1,inactive
6,CCC(=O)OC(Cc1ccccc1)(c1ccccc1)[C@H](C)CN(C)C (stereo partly specified),9.98 µM
7,COc1ccc(/C=C/C(=O)NC(=S)NCCc2ccc(OC)c(OC)c2)cc1,8.72 µM
8,CN(C)C(CNC(=O)Cc1ccc([N+](=O)[O-])cc1)c1ccccc1 (stereo unspecified),7.74 µM
9,CN(C)C(CNC(=O)CSC(=S)N1CCCC1)c1ccccc1 (stereo unspecified),0.969 µM
10,Cc1cc(N2CCN(C)CC2)ccc1NC(=O)c1ccc(-c2ccc(Cl)cc2)o1,inactive
11,COc1ccc2[nH]c3c(=O)n(/N=C/[C@H]4C(C)C=C(C)CC4C)c(=O)[nH]c3c2c1 (stereo partly specified),> 92.5 µM (inactive)
12,Cc1ccccc1Cn1c(O)c(N=NC(=S)Nc2ccccc2F)c2ccccc21,> 92.5 µM (inactive)
13,CCOC(=O)C1(CC2CC2)CCN(Cc2cnc(-c3ccccc3C)nc2)CC1,inactive
14,Cc1cc(C)cc(C(=O)N(CCc2ccccc2)C2=CC3CCC(C2)N3C)c1 (stereo unspecified),5.91 µM
15,CCOC(=O)C1(CCc2ccccc2)CCN(Cc2ccc(NC(C)=O)cc2)CC1,0.227 µM
16,Cc1ccc(Cn2c(=N)n(CC(O)COc3ccccc3)c3ccccc32)cc1 (stereo unspecified),inactive
17,CCOC(=O)c1c(C)[nH]c(C(=O)OCC(O)=C(C#N)c2nc3ccccc3[nH]2)c1C,> 92.5 µM (inactive)
18,COc1ccc2c(Cl)c(-c3nnc(SCC(=O)c4ccccc4)n3C)sc2c1,0.942 µM
19,CCc1cccc(C)c1NC(=S)NCC(c1cccnc1)N(C)C (stereo unspecified),3.68 µM
20,CCc1ccc(Nc2n[n+](-c3ccccc3)c(-c3c(Cl)cccc3Cl)s2)cc1,9.08 µM
21,CSC(=Nc1ccccc1)N=C(SCc1ccccc1)N(C)C,7.33 µM
22,O=C1C=C(c2c(O)ccc3ccccc23)c2ccccc2C1=O,9.82 µM
23,COc1cc(Br)cc(/C=N/NC(=O)Cc2ccc(C(F)(F)F)cc2[N+](=O)[O-])c1O,inactive
